Laboratory results published in paper PMC9508196 (Scientific Reports, 2022).
Values after ≈ are worked out from the molar mass of the structure shown. No end group written: not given here.

Legend:
[1] = system: A. baumannii isolate D-10.1-2; assay: Disk diffusion test (CLSI), antibiotic susceptibility profile; format: cell-based, Acinetobacter baumannii; conditions: CLSI breakpoints
Description: (§1) ^aAntibiotic susceptibility profile of all isolated strains was evaluated by disk diffusion test, using the standard protocol guide of the Clinical and Laboratory Standards Institute (CLSI), and interpreted as S: Susceptible to standard dosing regimen; I: Intermediate; R: Resistant (in accordance with the criteria of CLST breakpoints).

[2] = system: A. baumannii isolate A-8.2-1; assay: as above; format: cell-based, Acinetobacter baumannii; conditions: CLSI breakpoints
Description: as §1

[3] = system: A. baumannii isolate C-8.1-2; assay: as above; format: cell-based, Acinetobacter baumannii; conditions: CLSI breakpoints
Description: as §1

[4] = system: A. baumannii isolate B-8.1-1; assay: as above; format: cell-based, Acinetobacter baumannii; conditions: CLSI breakpoints
Description: as §1

[5] = system: A. baumannii isolate C-8.2-1; assay: as above; format: cell-based, Acinetobacter baumannii; conditions: CLSI breakpoints
Description: as §1

[6] = system: A. baumannii isolate D-10.1-1; assay: as above; format: cell-based, Acinetobacter baumannii; conditions: CLSI breakpoints
Description: as §1

[7] = system: A. baumannii isolate B-8.1-2; assay: as above; format: cell-based, Acinetobacter baumannii; conditions: CLSI breakpoints
Description: as §1

[8] = system: A. baumannii isolate B-8.2-2; assay: as above; format: cell-based, Acinetobacter baumannii; conditions: CLSI breakpoints
Description: as §1

[9] = system: A. baumannii B-8.2–2 (XDR); assay: microbe, parasite or virus in culture; format: cell-based, Acinetobacter baumannii; conditions: Acinetobacter baumannii
Text: (§2) Ten strains of both Gram-positive and -negative bacteria, including Staphylococcus aureus ATCC 25,923, S. epidermidis ATCC 12,228, Bacillus cereus ATCC 11,778, Listeria monocytogenes 10403S, Salmonella typhimurium ATCC 13,311, Pseudomonas aeruginosa ATCC 27,853, Shigella sonnei ATCC 11,060, A. baumannii ATCC 19,606, Escherichia coli ATCC 25,922 and E. coli O157:H7, were used in this study. Eight clinical isolates of multidrug-resistant (MDR) and extensively drug-resistant (XDR) A. baumannii, isolated from human (blood, sputum, respiratory sample, sterile site sample and urine), were kindly provided by Asst. Prof. Dr. Sakawrat Kanthawong (Faculty of Medicine, Khon Kaen University, Thailand) (Table S1). All bacterial strains, excluding L. monocytogenes 10403S and E. coli, were cultured in tryptic soy broth (TSB). L. monocytogenes was grown in TSB supplemented with 0.6% yeast extract (TSB-YE), and E. coli was cultured in Luria broth (LB). All of bacteria were cultured at 37 °C with continuous shaking at 220 rpm.
(§3) Minimum inhibitory concentration (MIC) of peptides and antibiotics was assessed by a modified version of the broth microdilution method from the Clinical and Laboratory Standards Institute (CLSI) as previously described. In brief, mid-log phase growths of microbial strains were cultured in Müeller-Hinton broth (MHB) with an initial inoculum of 2–8 × 10^5 CFU/mL. Bacteria suspensions were incubated in sterile 96-well plates with test agents at desired concentrations. […] Minimum bactericidal concentration (MBC) determination was performed using a modified version of the colony count assay. In brief, fifty µl of all non-turbid wells from MIC experiments were spread on agar plates. The MBC value was defined as the lowest concentration of peptides with no colony growth on the plate. All assays were performed in triplicate.

[10] = system: A. baumannii B-8.1–1 (MDR); assay: microbe, parasite or virus in culture; format: cell-based, Acinetobacter baumannii; conditions: Acinetobacter baumannii
Text: as §2, §3

[11] = system: A. baumannii C-8.2–1 (XDR); assay: microbe, parasite or virus in culture; format: cell-based, Acinetobacter baumannii; conditions: Acinetobacter baumannii
Text: as §2, §3

[12] = system: A. baumannii ATCC 19,606; assay: microbe, parasite or virus in culture; format: cell-based, Acinetobacter baumannii; conditions: for MBC: ATCC19
Text: as §2, §3

[13] = system: A. baumannii B-8.1–2 (MDR); assay: microbe, parasite or virus in culture; format: cell-based, Acinetobacter baumannii; conditions: Acinetobacter baumannii
Text: as §2, §3

[14] = system: A. baumannii C-8.1–2 (MDR); assay: microbe, parasite or virus in culture; format: cell-based, Acinetobacter baumannii; conditions: Acinetobacter baumannii
Text: as §2, §3

[15] = system: A. baumannii A-8.2–1 (XDR); assay: microbe, parasite or virus in culture; format: cell-based, Acinetobacter baumannii; conditions: Acinetobacter baumannii
Text: as §2, §3

[16] = system: Escherichia coli ATCC 25,922; format: cell-based; conditions: E. coli ATCC 25,922; broth microdilution, MHB, 24 h, 37 °C, triplicate
Text: as §2, §3

[17] = system: Staphylococcus epidermidis ATCC 12,228; format: cell-based; conditions: S. epidermidis ATCC 12,228; broth microdilution, MHB, 24 h, 37 °C, triplicate
Text: as §2, §3

[18] = system: Pseudomonas aeruginosa ATCC 27,853; format: cell-based; conditions: P. aeruginosa ATCC 27,853; broth microdilution, MHB, 24 h, 37 °C, triplicate
Text: as §2, §3

[19] = system: Listeria monocytogenes 10403S; format: cell-based; conditions: L. monocytogenes 10403S; broth microdilution, MHB, 24 h, 37 °C, triplicate
Text: as §2, §3

[20] = system: Shigella sonnei ATCC 11,060; format: cell-based; conditions: S. sonnei ATCC 11,060; broth microdilution, MHB, 24 h, 37 °C, triplicate
Text: as §2, §3

[21] = system: Salmonella Typhimurium ATCC 13,311; format: cell-based; conditions: S. Typhimurium ATCC 13,311; broth microdilution, MHB, 24 h, 37 °C, triplicate
Text: as §2, §3

[22] = system: Escherichia coli O157:H7 MT strain; format: cell-based; conditions: E. coli O157:H7 MT strain; broth microdilution, MHB, 24 h, 37 °C, triplicate
Text: as §2, §3

[23] = system: Bacillus cereus ATCC 11,778; format: cell-based; conditions: B. cereus ATCC 11,778; broth microdilution, MHB, 24 h, 37 °C, triplicate
Text: as §2, §3

[24] = system: Staphylococcus aureus ATCC 25,923; format: cell-based; conditions: S. aureus ATCC 25,923; broth microdilution, MHB, 24 h, 37 °C, triplicate
Text: as §2, §3

[25] = Acinetobacter baumannii, ATCC19, 24 h
[26] = A. baumannii ATCC 19,606, broth microdilution (modified CLSI), MHB, 2–8 × 10^5 CFU/mL, 24 h, 37 °C, triplicate

Row | Compound | Antibiotic susceptibility profile [1] | Antibiotic susceptibility profile [2] | Antibiotic susceptibility profile [3] | Antibiotic susceptibility profile [4] | Antibiotic susceptibility profile [5] | Antibiotic susceptibility profile [6] | Antibiotic susceptibility profile [7] | Antibiotic susceptibility profile [8] | MIC [12, 26] [µg/mL] | MIC [16] [µg/mL] | MIC [17] [µg/mL] | MIC [18] [µg/mL] | MIC [19] [µg/mL] | MIC [20] [µg/mL] | MIC [21] [µg/mL] | MIC [22] [µg/mL] | MIC [23] [µg/mL] | MIC [24] [µg/mL] | also measured
1 | CC1(C)S[C@@H]2[C@H](NC(=O)[C@H](N)c3ccccc3)C(=O)N2[C@H]1C(=O)O [Amp, Ampicillin] | R | R | R | R | R | R | R | R |  |  |  |  |  |  |  |  |  |  | 
2 | CC(C)(O/N=C(\C(=O)N[C@@H]1C(=O)N2C(C(=O)[O-])=C(C[n+]3ccccc3)CS[C@H]12)c1csc(N)n1)C(=O)O [Caz, Ceftazidime] | I | R | I | S | R | R | R | R |  |  |  |  |  |  |  |  |  |  | 
3 | CNC(C)C1CCC(N)C(OC2C(N)CC(N)C(OC3OCC(C)(O)C(NC)C3O)C2O)O1 (stereo not shown) [Gen, Gentamicin] | I | R | R | I | R | R | R | R |  |  |  |  |  |  |  |  |  |  | 
4 | C[C@H]1COc2c(N3CCN(C)CC3)c(F)cc3c(=O)c(C(=O)O)cn1c23 [Levofloxacin] | R | R | R | S | R | I | R | R |  |  |  |  |  |  |  |  |  |  | MBC [9]: 7.81 µg/mL (≈ 21.6 µM); MIC [9]: 7.81 µg/mL (≈ 21.6 µM); MBC [10]: 1.95 µg/mL (≈ 5.4 µM); MIC [10]: ≤ 0.49 µg/mL; MBC [11]: 7.81 µg/mL (≈ 21.6 µM); MIC [11]: 3.91 µg/mL (≈ 10.8 µM); MBC ([12]; Acinetobacter baumannii): ≤ 0.49 µg/mL; MIC [12, 25]: ≤ 0.49 µg/mL; MBC [13]: 250 µg/mL (≈ 692 µM); MIC [13]: 125 µg/mL (≈ 346 µM); MBC [14]: 31.2 µg/mL (≈ 86.5 µM); MIC [14]: 31.2 µg/mL (≈ 86.5 µM); MBC [15]: 3.91 µg/mL (≈ 10.8 µM); MIC [15]: 3.91 µg/mL (≈ 10.8 µM)
5 | CN(C)c1ccc(O)c2c1C[C@H]1C[C@H]3[C@H](N(C)C)C(O)=C(C(N)=O)C(=O)[C@@]3(O)C(O)=C1C2=O [Minocycline] |  |  |  |  |  |  |  |  |  |  |  |  |  |  |  |  |  |  | MBC [9]: 31.2 µg/mL (≈ 68.3 µM); MIC [9]: 3.91 µg/mL (≈ 8.55 µM); MBC [10]: 7.81 µg/mL (≈ 17.1 µM); MIC [10]: ≤ 0.49 µg/mL; MBC [11]: 31.2 µg/mL (≈ 68.3 µM); MIC [11]: 1.95 µg/mL (≈ 4.26 µM); MBC ([12]; Acinetobacter baumannii): 1.95 µg/mL (≈ 4.26 µM); MIC [12, 25]: ≤ 0.49 µg/mL; MBC [13]: 15.6 µg/mL (≈ 34.2 µM); MIC [13]: 0.98 µg/mL (≈ 2.14 µM); MBC [14]: 31.2 µg/mL (≈ 68.3 µM); MIC [14]: 3.91 µg/mL (≈ 8.55 µM); MBC [15]: 31.2 µg/mL (≈ 68.3 µM); MIC [15]: 0.98 µg/mL (≈ 2.14 µM)
6 | RLFRRVKKVAGK-NH2 [AP12] |  |  |  |  |  |  |  |  | > 250 | 125 | 250 | > 250 | 125 | 250 | 125 | 250 | > 250 | > 250 | 
7 | RLFRRVKKVAGKI-NH2 [AP13] |  |  |  |  |  |  |  |  | > 250 | 125 | 62.5 | > 250 | 62.5 | 125 | 62.5 | 250 | > 250 | > 250 | 
8 | RLFRRVKKVAGKIA-NH2 [AP14] |  |  |  |  |  |  |  |  | > 250 | 125 | 31.25 | 250 | 62.5 | 125 | 62.5 | 250 | > 250 | > 250 | 
9 | RLFRRVKKVAGKIAK-NH2 [AP15] |  |  |  |  |  |  |  |  | 62.5 | 31.25 | 15.63 | 125 | 31.25 | 62.5 | 31.25 | 62.5 | > 250 | 250 | 
10 | RLFRRVKKVAGKIAKR-NH2 [AP16] |  |  |  |  |  |  |  |  | 62.5 | 31.25 | 7.81 | 62.5 | 15.63 | 15.63 | 15.63 | 125 | 250 | 125 | 
11 | RLFRRVKKVAGKIAKRI-NH2 [AP17] |  |  |  |  |  |  |  |  | 31.25 | 15.63 | 7.81 | 15.63 | 7.81 | 7.81 | 7.81 | 125 | 62.5 | 62.5 | 
12 | RLFRRVKKVAGKIAKRIW-NH2 [AP18] |  |  |  |  |  |  |  |  | 7.81 | 7.81 | 3.91 | 3.91 | 3.91 | 3.91 | 3.91 | 15.63 | 7.81 | 7.81 | 
